Source: patent publication US20220325242A1, “IDH2 INHIBITION FOR PRODUCING T-CELLS AND B-CELLS WITH A MEMORY PHENOTYPE” (Universite de Lausanne, priority 2019, published 2022)

Test system: Sell (CD62L) mRNA in OT1 cells
Experiment: Sell (CD62L) gene expression by quantitative real time RT-PCR in OT1 cells
Format: cell-based, mouse
Description: Example 2. In vitro culture of splenocytes comprising CD8+ T-cells. OT1 splenocytes (as described in Example 1) were cultured for 3 days at a concentration of 10^6 cells per mL in RPMI medium (Gibco 61870-01) supplemented with 10% FCS, (Gibco 10270-106), 1% Penicillin/Streptomycin (P/S; Gibco 15070-063), 0.1% 13-mercaptoethanol, 1% HEPES (Gibco 15630-080), 1× Non-essential amino acids (Gibco 11140-035), 1% L-glutamine (Gibco 25030-081), 1 mM Sodium Pyruvate (Gibco 11360-039), 100 U/m1 hIL-2 (Glaxo-IMB) and 1 μg/ml ovalbumin N4 peptide (SIINFEKL). To evaluate the effects of IDH2 inhibition on T-cell differentiation, 5 μM of a small molecule IDH2 inhibitor (AG221 or AGI6780) or a DMSO solvent control was added during this 3-day culture period. […] At day 3 and day 7, the activation and differentiation state of CD8+ T-cells was determined by gene expression analysis, flow cytometry and extracellular metabolic flux analyses (see Example 3).
a) Gene expression analysis by quantitative real time RT-PCR RNA was isolated with the RNeasy mini kit (Qiagen) and cDNA was generated by reverse transcription (Applied Biosystems). […] Gene expression was calculated relative to […] (FW primer: 5′ aga ctg ata cat acg cct gca g 3′, RV primer: 5′ gca ggt tca aat gaa tct tca g 3′).

## CC(C)(O)CNc1nc(Nc2ccnc(C(F)(F)F)c2)nc(-c2cccc(C(F)(F)F)n2)n1 [AG221, 2-methyl-1-[[4-[6-(trifluoromethyl)pyridin-2-yl]-6-[[2-(trifluoromethyl)pyridin-4-yl]amino]-1,3,5-triazin-2-yl]amino]propan-2-ol]
Day 3, 5 μM, versus DMSO
  Sell (CD62L) mRNA expression increase: 3 fold
Day 7, 5 μM day 0-3, versus DMSO
  Sell (CD62L) mRNA expression increase: 7 fold
